Read-outs that look alike come from different tables or passages of the source.
Experiments:
WNV replicon = experiment: microbe, parasite or virus in culture; format: cell-based, West Nile virus (WNV); conditions: for EC50: read-out: WNV replicon EC50; for inhibition at 50 µM: read-out: % Replicon Inhibition (Means ± SEM) WNV
Vero cells [1] = experiment: Cytotoxicity assay, Vero cells; conditions: read-out: WNV replicon CC50; Table 2; unit inferred
BHK-21 cells [2] = experiment: Cytotoxicity assay, BHK-21 cells; conditions: read-out: DENV replicon CC50; Table 2; unit inferred
DENV2 replicon = experiment: microbe, parasite or virus in culture; format: cell-based, Dengue Virus 2 (DENV2); conditions: for inhibition at 50 µM: DENV2, BHK-21, read-out: % Replicon Inhibition (Means ± SEM) DENV2
DENV2 [3] = experiment: Inhibition of DENV2 infectivity in BHK-21 cells, plaque assay of supernatants; format: cell-based, Dengue Virus 2 (DENV2); conditions: for EC90: read-out: EC90 for inhibition of DENV2 infectivity (plaque assay)
Experimental: BHK-21 cells were seeded into 12-well plates (10^5 cells/well) and incubated overnight at 37° C. Cells were infected with DENV2 at a multiplicity of infection (MOI) of 0.01 or 1 as indicated. After infection, cells were washed with PBS and incubated with 1.5 mL of MEM supplemented with 2% FBS, 100 I.U./mL penicillin/100 μg/mL streptomycin (referred to as maintenance medium). AQ, at indicated concentrations, was added and cells were incubated at 37° C. for various time points as indicated. DMSO (1%), as a no-compound control (100% infection), and mock-infected control using medium alone (0% infection) were included. Supernatants were collected from the time point experiments and the virus titers determined by plaque assay.
(§1) BHK-21 cells were seeded at ˜10^5 cells/well (12-well plate) or ˜5×10^4 cells/well (24-well plate) and then incubated at 37° C. until reaching 90% confluence. Cells were infected with the supernatants collected from experiments of AQ treatments. Cells were washed with PBS, and incubated with 1.5 mL of overlay medium (maintenance medium containing 1% methylcellulose). The plates were incubated for 3-4 days at 37° C. under 5% CO2. After plaques became visually apparent by microscopy, cells were fixed and stained with 11.1% formaldehyde, 4.75% isopropanol, and 1% crystal violet for 30 minutes. The number of plaque forming units (PFU) per mL was determined.
BHK-21 cells were seeded as described above. AQ, at indicated concentrations in 1% DMSO, was added to DENV2 (MOI of 0.01 or 1)-infected cells during adsorption and/or post-infection. Supernatants were collected at indicated time points post-infection for plaque assays.

DENV2 [4] = experiment: Order of addition assay; format: cell-based, Dengue Virus 2 (DENV2); conditions: AQ 5 μM added post-infection; 48 and 72 hours; MOI of 1
Rluc enzyme = target: T1, Rluc enzyme (Renilla reniformis, UniProt P27652); format: biochemical; conditions: added to BHK-21/DENV2 replicon cell lysate
T1 sequence (P27652 1-311): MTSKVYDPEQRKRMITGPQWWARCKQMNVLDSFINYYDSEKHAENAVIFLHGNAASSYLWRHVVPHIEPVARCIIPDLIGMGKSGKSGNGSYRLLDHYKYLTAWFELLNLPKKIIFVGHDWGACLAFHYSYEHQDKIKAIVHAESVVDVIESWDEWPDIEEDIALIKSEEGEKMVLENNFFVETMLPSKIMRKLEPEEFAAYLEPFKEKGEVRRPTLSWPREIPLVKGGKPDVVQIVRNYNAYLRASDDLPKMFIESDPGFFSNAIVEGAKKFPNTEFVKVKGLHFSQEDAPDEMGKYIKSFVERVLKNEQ

DENV2 [5] = experiment: DENV2 intracellular and extracellular RNA levels by qPCR in BHK-21 cells; format: cell-based, Dengue Virus 2 (DENV2); conditions: AQ 5 μM, 72 hours, p<0.001 vs untreated
DENV2 [6] = experiment: Time-course analysis on DENV2 infectivity (indirect plaque assay); format: cell-based, Dengue Virus 2 (DENV2)
Experimental: as §1
BHK-21 cells were grown in 6-well plates (˜2.5×10^5 cells/well) and were infected with DENV2 at a MOI of 0.01 in the maintenance medium. Cells were washed with PBS and incubated with 3 mL of maintenance medium. AQ at indicated concentrations was added and cells were incubated at 37° C. Supernatants were sampled as indicated and stored at −70° C. for plaque assays.

DENV2 [7] = experiment: Time of addition assay; format: cell-based, Dengue Virus 2 (DENV2)
DENV2 [8] = experiment: Direct plaque assay, AQ present only during adsorption (viral entry); format: cell-based, Dengue Virus 2 (DENV2)
BHK-21 cells [9] = conditions: hamster
Vero cells [10] = conditions: African green monkey
[11] = 50 μM in 1% DMSO, Vero/WNV replicon cells
[12] = Dengue virus, DENV2, BHK-21, read-out: DENV replicon EC50

COc1ccc(Nc2ccnc3cc(Cl)ccc23)cc1CN(CCCl)C(C)CCl (centres unmarked) [AQ derivative 7]
% Replicon Inhibition (Means ± SEM) WNV (WNV replicon; [11]): 97.7 ± 1.1%
EC50 (WNV replicon; Table 2, unit inferred): 14.8 ± 1.14 µM
inhibition of WNV replicon replication (in words) (WNV replicon; Vero/WNV replicon cells, FIG. 1B): strong inhibition
CC50 (Vero cells [1]): 34.8 ± 1.78 µM
CC50 (BHK-21 cells [2]): 17.7 ± 1.96 µM
% Replicon Inhibition (Means ± SEM) DENV2 (DENV2 replicon): 93.0 ± 2.6%
inhibition of DENV2 replicon replication (in words) (DENV2 replicon): strong inhibition
EC50 (DENV2 replicon; read-out: DENV replicon EC50): 19 ± 1.73 µM

chloroquine sulfate
% Replicon Inhibition (Means ± SEM) WNV (WNV replicon): — (key: —: “-” refers to no inhibition)
% Replicon Inhibition (Means ± SEM) DENV2 (DENV2 replicon): 28.1 ± 3.6%

Oc1ccc(Nc2ccnc3cc(Cl)ccc23)cc1 [AQ derivative 8]
% Replicon Inhibition (Means ± SEM) WNV (WNV replicon; [11]): 57.2 ± 5.1%
EC50 (WNV replicon; Table 2, unit inferred): > 100 µM
CC50 (Vero cells [1]): > 100 µM
CC50 (BHK-21 cells [2]): > 100 µM
EC90 (DENV2 [3]; MOI of 1, supernatants at 72 hours, BHK-21 cells): 31.2 ± 5.15 µM
% Replicon Inhibition (Means ± SEM) DENV2 (DENV2 replicon): 3.9 ± 0.3%
inhibition of DENV2 replicon replication (in words) (DENV2 replicon): failed to inhibit replicon replication
EC50 (DENV2 replicon; read-out: DENV replicon EC50): > 100 µM
EC50 (DENV2 replicon; read-out: EC50 values, BHK-21/DENV2 replicon cells): ~100 µM

CCN(CC)Cc1cc(Nc2ccnc3cc(Cl)ccc23)ccc1O [AQ, 4-[(7-chloroquinolin-4-yl)amino]-2(diethylaminomethyl)phenol]
reduction of plaque titer from DMSO control (DENV2 [4]): ≥ 90%
inhibition at 50 µM (WNV replicon; West Nile virus, Vero): 96.3 ± 0.39%
EC50 (WNV replicon; West Nile virus, Vero): 14.6 ± 2.21 µM
CC50 (Vero cells [1]): 24.4 ± 2.49 µM
interference with Rluc enzyme activity (Rluc enzyme): did not interfere
CC50 (BHK-21 cells [2]): 80 ± 6.27 µM
DENV2 replication, intracellular and extracellular RNA levels (qRT-PCR) (DENV2 [5]): effectively inhibited DENV2 replication
virus infectivity (PFU/mL of supernatant) by plaque assay (DENV2 [3]; AQ 5 μM, 72 hours, BHK-21 cells): significant reduction
EC90 (DENV2 [3]; Dengue virus, DENV2, BHK-21, 96 h): 2.71 ± 0.85 µM
EC50 (DENV2 [3]; Dengue virus, DENV2, MOI of 1, supernatants at 72 hours, BHK-21 cells, read-out: EC50 for inhibition of extracellular release of DENV2 (plaque assay)): 1.08 ± 0.09 µM
EC90 (DENV2 [3]; Dengue virus, DENV2, MOI of 1, supernatants at 72 hours, BHK-21 cells): 2.69 ± 0.4 µM
inhibition of DENV2 infectivity, indirect plaque assay (DENV2 [6]; AQ 5 μM present during and up to 96 hours post-infection): significant inhibition
plaque formation reduced (DENV2 [6]; AQ 5 μM, MOI of 0.01, added during adsorption and post-infection): ≥ 90%
virus titers (PFU/mL) over time course (DENV2 [6]; AQ 1, 5, 10, 25 μM, MOI of 0.01, p<0.05): reduced significantly in a dose-dependent manner
% Replicon Inhibition (Means ± SEM) DENV2 (DENV2 replicon): 76.3 ± 1.6%
inhibition at 50 µM (DENV2 replicon; Dengue virus): 76.3 ± 1.6%
EC50 (DENV2 replicon; [12]): 10.8 ± 1.43 µM
EC50 (DENV2 replicon; Dengue virus, DENV2, BHK-21, read-out: EC50 in BHK-21/DENV2 replicon cells): 7.41 ± 1.09 µM
plaque reduction (DENV2 [7]; AQ 5 μM added as late as 15 hours post-infection, supernatants at 72 hours, MOI of 1): ≥ 90%
inhibitory effect when added late (DENV2 [7]; AQ 5 μM added at 21 hours post-infection and later): lost its inhibitory effect
inhibition of DENV2 infection when added early (DENV2 [7]; AQ 5 μM added up to 12 hours post-infection, supernatants at 48 hours): inhibited DENV2 infection steadily
plaque titer versus DMSO control, direct plaque assay (DENV2 [8]; AQ 5 μM only during adsorption, MOI of 0.01): not significantly different
virus titer reduced, direct plaque assay (DENV2 [8]; AQ 10 μM during adsorption): 69.23±1.57%
virus titer reduced, direct plaque assay (DENV2 [8]; AQ 25 μM during adsorption): 82.70±2.48%

CC(CCCN(CCCl)CCCl)Nc1ccnc2cc(Cl)ccc12 (centres unmarked) [chloroquine mustard]
CC50 (BHK-21 cells [9]): 30.5 ± 9.77 µM
% Replicon Inhibition (Means ± SEM) WNV (WNV replicon): 99.8 ± 0.03%
inhibition at 50 µM (WNV replicon; West Nile virus, Vero): > 99%
EC50 (WNV replicon; West Nile virus, Vero): 2.95 ± 0.77 µM
CC50 (Vero cells [10]): 3.64 ± 0.93 µM
% Replicon Inhibition (Means ± SEM) DENV2 (DENV2 replicon): 99.6 ± 0.32%
inhibition at 50 µM (DENV2 replicon; Dengue virus): > 99%
EC50 (DENV2 replicon; [12]): 2.9 ± 0.78 µM

CC(CCCN(CCCl)CCCl)Nc1ccnc2cc(Cl)ccc12.O=C(O)c1cc2ccccc2c(Cc2c(O)c(C(=O)O)cc3ccccc23)c1O [chloroquine mustard pamoate]
% Replicon Inhibition (Means ± SEM) WNV (WNV replicon): 10.35 ± 4.1%
% Replicon Inhibition (Means ± SEM) DENV2 (DENV2 replicon): 47.5 ± 4.9%

CCN(CC)CCCC(C)Nc1ccnc2cc(Cl)ccc12 (centres unmarked) [chloroquine (CQ), chloroquine]
inhibition at 50 µM (WNV replicon; West Nile virus, Vero): 18.5 ± 2.8%
EC90 (DENV2 [3]; Dengue virus, DENV2, BHK-21, 72 h): 5.04 ± 0.72 µM
inhibition of DENV2 replicon replication (in words) (DENV2 replicon): did not inhibit DENV2 replicon replication
inhibition at 50 µM (DENV2 replicon; Dengue virus): 54.8 ± 4.5%

C/C=C1\CN2CC[C@H]1C[C@H]2[C@H](O)c1ccnc2ccc(O)cc12 [apoquinine]
% Replicon Inhibition (Means ± SEM) WNV (WNV replicon; [11]): 33.7 ± 2.9%
% Replicon Inhibition (Means ± SEM) DENV2 (DENV2 replicon): — (key: —: “-” refers to no inhibition)
